{"source": "patent US20250376466A1", "about": "“ESTER COMPOUNDS AND USE THEREOF” (NANJING REJU THERAPEUTICS, CO., LTD., priority 2022, published 2025)", "key": {"[1]": {"test_system": "idiopathic pulmonary fibrosis", "experiment": "Bleomycin idiopathic pulmonary fibrosis animal model", "format": "in vivo, SD rats", "details": "intraperitoneal (IP) 5 mg/kg, 3 consecutive weeks from day 7; Day 28; FIG. 6", "protocol": "In this example, the efficacy of the compounds of the present disclosure was tested on idiopathic pulmonary fibrosis in an idiopathic pulmonary fibrosis animal model. Briefly, anesthetized 6-week-old SD rats were fixed on a foam board with medical tape. Firstly, the skin on the surface of the trachea was cut with surgical scissors to fully expose the trachea, and a 100-microlitre micro-syringe containing a certain volume of bleomycin (BLM 5 mg/kg) solution drawn based on the body weight of the rat was inserted into the trachea through the oral cavity to administer by slow bolus injection. After administration of the BLM solution, the foam plate was immediately rotated and shaken to distribute the BLM solution as evenly as possible in the lung tissue. Then the skin on the surface of the trachea was sutured with surgical sutures and about 0.5 to 1.0 mL of penicillin solution was dripped onto the epidermis to prevent infection of the surgical wound. After the 7th day of modelling, the compound solution of the present disclosure was administered via intraperitoneal (IP) injection (5 mg/kg) according to the weight of the rat for 3 consecutive weeks. Rats were euthanized by carbon dioxide at Day 28, the lung tissues were removed, the left alveolar lavage fluid was collected for white blood cell (WBC) counting, the right lung tissue portion was used for hydroxyproline (HYP) assay, and the remaining lung tissues were stained for pathology by H&E staining and Masson staining."}, "[2]": {"test_system": "normal and senescent A549 cells", "experiment": "Senescent cell clearance index (senolytic index)", "format": "cell-based, human", "details": "higher index = greater specificity", "protocol": "In this example, human non-small cell lung cancer cell line (A549 cells), human embryonic lung fibroblast cell line (IMR90 cells), human retinal pigment epithelial cells (RPE cells), mouse chondrocytes, and mouse skin fibroblasts were selected. The cells above were induced to obtain senescent cells by etoposide (10 μM). The effect of the target compounds RZ001-RZ006 and RZ201 on the viability of normal and senescent cells above was detected, thereby evaluating the specific killing effect of the prodrugs RZ001-RZ006 and RZ201 on senescent cells above.\nBriefly, senescent and normal cells above were selected and plated separately (96-well plates). After adding the compounds RZ001-RZ006 and RZ201 (concentration: 1 μM) for 72 hours, CellTiter-Glo® Luminescent Cell Viability Assay Kit (Promega) was used to detect cell viability, and the results were shown in FIGS. 2A to 2E.\nFurthermore, the senescent cell clearance index (senolytic index) was also calculated for both normal and senescent A549 cells, as shown in Table 4. A higher index indicates greater specificity in eliminating senescent cells and better safety."}, "aging skin": {"test_system": "aging skin", "experiment": "Aging skin in naturally aging mouse model", "format": "in vivo", "details": "skin application twice a week, 6 consecutive weeks; aged female mice (22 months old); FIG. 10", "protocol": "In this example, aged female C57bl/6J mice (22 months old) were used. The drug was administered by skin application at twice a week for 6 consecutive weeks."}, "renal fibrosis": {"test_system": "renal fibrosis", "experiment": "Renal fibrosis animal model (ureter ligation)", "format": "in vivo, mice", "details": "intraperitoneal (IP) injection from 2nd week of modelling; FIG. 11", "protocol": "In this example, the efficacy of the compound of the present disclosure was tested on renal fibrosis in an animal model of renal fibrosis. Briefly, C57BL/6J mice, male, 7 to 8 weeks old, were used. The mice were anaesthetized, made to lie supine on a foam board, and disinfected with iodophor, and a longitudinal incision was made in the skin in the middle of the lower abdomen to locate the white line of the abdominal muscle, where the abdominal muscle, fascia and peritoneal layer were dissected. After exposing the surgical field, the kidneys were exposed by pushing the stomach and mesentery of the mice to the right side with a gauze soaked with saline. The model of renal fibrosis was constructed by locating the transparent ureter from the renal pelvis along the renal artery, separating the left ureter, ligating the upper ⅓ of the left ureter, suturing the incision layer by layer, and finally disinfecting with iodophor. Dosing via intraperitoneal injection was started from the 2nd week of modelling. At the end of the experiment, the mouse serum was collected and kidney tissues were taken for Masson staining index assay."}, "diabetic retinopathy": {"test_system": "diabetic retinopathy", "experiment": "Mouse model of diabetic retinopathy (STZ), Evans blue penetration", "format": "in vivo", "details": "intravitreal (IVT), 1 μL of 200 μM at 8 and 9 weeks after STZ; Evans blue at 10 weeks; FIG. 4", "protocol": "The efficacy of the compounds of the present disclosure was studied in a mouse model of diabetic retinopathy by multiple administrations of streptozotocin (STZ). C57BL/6J mice at 6 to 7 weeks were weighed and their baseline blood glucose was measured (Sino). STZ (Sigma-Aldrich) was injected intraperitoneally into the mice at 55 mg/Kg for five consecutive days. Age-matched controls were injected with buffer only. Blood glucose was measured again one week after the last STZ injection. 1 μL of the test compound (200 μM, a suspension formulated in 0.015% polysorbate 80, 0.2% sodium phosphate, 0.75% sodium chloride, pH 7.2) was injected intravitreally into the STZ-treated diabetic C57BL/6J mice at 8 and 9 weeks after STZ administration. 10 weeks after STZ treatment, the retinal Evans blue penetration assay was performed."}, "osteoarthritis": {"test_system": "osteoarthritis", "experiment": "Osteoarthritis animal model", "format": "in vivo, mice", "details": "intra-articular injection; FIG. 7", "protocol": "In this example, the efficacy of the compounds of the present disclosure was tested on osteoarthritis in an osteoarthritis animal model.\nThe osteoarthritis animal model was constructed by the following steps. The mice were anesthetized with isoflurane, and fixed. The hair on the right hind limb of the mice was shaved and the skin was disinfected with alcohol, and the skin of the joints was cut. Under an optical microscope, the inside of the right knee joint was incised longitudinally with a blade, without cutting the patellar ligament. The patellar ligament was pulled to one side with constant hemostasis by compression with sterile cotton swabs such that the joint cavity was fully exposed. Saline was added dropwise in time to avoid the drying up of the joint cavity. The excess muscle tissue was gently separated with a blunt forceps to expose the meniscus ligament. The anterior cruciate ligament was found in the depth of the joint cavity and cut with micro scissor. Then the wound was disinfected with penicillin solution, the muscle was sutured with sterile needle and thread, and the skin tissue was finally sutured. The efficacy of the drug was determined by intra-articular injection administration. At the endpoint of the test, continued pain threshold of the plantar was detected, and the bone joints were stained with safranin fast green."}, "Alzheimer's disease": {"test_system": "Alzheimer's disease", "experiment": "APP×PS1 transgenic mouse model of Alzheimer's disease", "format": "in vivo", "details": "intraperitoneal injection, twice a week, 11 consecutive weeks; cerebral cortex; FIG. 8", "protocol": "In this example, the efficacy of the compounds of the present disclosure was tested on Alzheimer's disease in an animal model of Alzheimer's disease. Briefly, a transgenic mouse model of APP×PS1 (purchased from Cyagen Biosciences) was selected and the compound of the present disclosure was administered by intraperitoneal injection for 11 consecutive weeks, twice a week. Alterations in amyloid in the cerebral cortex of the mice were observed."}}}
{"smiles": "Cc1c(-c2ccc(N3CCc4cccc(C(=O)Nc5nc6ccccc6s5)c4C3)nc2C(=O)OCOC(=O)C(C)C)cnn1CC12CC3CC(CC(C3)C1)C2", "note": "[RZ001]", "values": [{"measurement": "HYP (hydroxyproline, lung tissue)", "setting": "[1]", "result": "statistically significant improvements"}, {"measurement": "WBC (white blood cell count, alveolar lavage fluid)", "setting": "[1]", "result": "statistically significant improvements"}, {"measurement": "pathology scores (H&E and Masson staining, lung)", "setting": "[1]", "result": "statistically significant improvements"}, {"measurement": "senescent cell clearance index (Senolytic Index)", "setting": "[2]", "result": "A (A represents more than 200)"}, {"measurement": "epidermal thickness scores of the skin", "setting": "aging skin", "result": "statistically significant improvements"}, {"measurement": "pathology (kidney, Masson staining)", "setting": "renal fibrosis", "result": "statistically significant improvements"}, {"measurement": "serum creatinine (Cr) levels", "setting": "renal fibrosis", "result": "statistically significant improvements"}, {"measurement": "serum urea nitrogen (BUN) levels", "setting": "renal fibrosis", "result": "statistically significant improvements"}, {"measurement": "vascular permeability in both the retinal and choroidal vascular leakage", "setting": "diabetic retinopathy", "result": "improved vascular permeability"}, {"measurement": "pathology scores of safranin fast green staining", "setting": "osteoarthritis", "result": "statistically significant improvements"}, {"measurement": "plantar mechanical pain threshold", "setting": "osteoarthritis", "result": "statistically significant improvements"}, {"measurement": "Aβ42 pathogenic protein indicators", "setting": "Alzheimer's disease", "result": "statistically significant improvements"}]}
{"smiles": "Cc1oc(=O)oc1COC(=O)c1nc(N2CCc3cccc(C(=O)Nc4nc5ccccc5s4)c3C2)ccc1-c1cnn(CC23CC4CC(CC(C4)C2)C3)c1C", "note": "[RZ201]", "values": [{"measurement": "HYP (hydroxyproline, lung tissue)", "setting": "[1]", "result": "statistically significant improvements"}, {"measurement": "WBC (white blood cell count, alveolar lavage fluid)", "setting": "[1]", "result": "statistically significant improvements"}, {"measurement": "pathology scores (H&E and Masson staining, lung)", "setting": "[1]", "result": "statistically significant improvements"}, {"measurement": "senescent cell clearance index (Senolytic Index)", "setting": "[2]", "result": "A (A represents more than 200)"}, {"measurement": "epidermal thickness scores of the skin", "setting": "aging skin", "result": "statistically significant improvements"}, {"measurement": "pathology (kidney, Masson staining)", "setting": "renal fibrosis", "result": "statistically significant improvements"}, {"measurement": "serum creatinine (Cr) levels", "setting": "renal fibrosis", "result": "statistically significant improvements"}, {"measurement": "serum urea nitrogen (BUN) levels", "setting": "renal fibrosis", "result": "statistically significant improvements"}, {"measurement": "vascular permeability in both the retinal and choroidal vascular leakage", "setting": "diabetic retinopathy", "result": "improved vascular permeability"}, {"measurement": "pathology scores of safranin fast green staining", "setting": "osteoarthritis", "result": "statistically significant improvements"}, {"measurement": "plantar mechanical pain threshold", "setting": "osteoarthritis", "result": "statistically significant improvements"}, {"measurement": "Aβ42 pathogenic protein indicators", "setting": "Alzheimer's disease", "result": "statistically significant improvements"}]}
